Data reported in patent US11413278B2, “Compounds and methods for promoting stress resistance” (priority 2015, dated 2022).
Where two headings read alike, the source gives them in different places.

What was measured:
WI-38 cells [1] = experiment: Propidium iodide (PI) cell-death imaging upon H2O2 stress; assay type: cell-based, human; conditions: for Assay 7: H2O2-resistant, at 10 uM, validated by propidium iodide (PI) cell-death imaging: w/H2O2, 3 hrs/4 hrs/5 hrs, YES/NO; for cytotoxicity at 10 µM: Homo sapiens, WI-38
[2] = tested on: human dermal fibroblast (HDF) primary cells; experiment: H2O2-resistance in primary human dermal fibroblasts; assay type: cell-based; conditions: for fold induction at 10 µM: Homo sapiens; for Assay 6: H2O2-resistant, at 10 uM, human dermal fibroblast (HDF) primary cells: YES/NO
LC3A/B puncta = experiment: Autophagy induction analysis (LC3A/B puncta immuno-staining); assay type: cell-based, human
How it was run: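 WI-38 cells were treated with compounds for 24 hrs, then immunostained for LC3A/B (overnight, 4° C) with DAPI counterstain and imaged by high-content microscopy. Experiment 1 used total puncta intensity. Experiment 2 used LAMP2-colocalized (lysosomal) puncta. Intensity was normalized to nuclei count.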

[3] = tested on: phosphorylated γH2A.X and TP53BP1; experiment: DNA damage marker analysis (immuno-staining); conditions: for activity at 10 µM: Homo sapiens, WI-38, 24 h; for P = Potential DNA-damaging / R = Potential DNA damaging: human, 24 h
How it was run: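 WI-38 cells were cultured 24 h, then treated with compounds for 24 h; H2O2 (700 μM, 3 h) and doxorubicin (300 nM, 24 h) served as DNA-damage controls. After fixation, cells were immunostained for phospho-γH2A.X (Ser-139) and phospho-TP53BP1 (Ser-1778), counterstained with DAPI, and imaged by automated high-content microscopy.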

WI-38 cells [4] = experiment: Long-term effects on cell viability (5 days, ATP; morphology, PI imaging); assay type: cell-based; conditions: 10 μM; for Luminescence signal for ATP measurement, day-1 Average / Luminescence signal for ATP measurement, day-2 Average / Luminescence signal for ATP measurement, day-3 Average / Luminescence signal for ATP measurement, day-4 Average / Luminescence signal for ATP measurement, day-5 Average / viability at 10 µM: Batch 1; for Luminescence signal for ATP measurement, day-1 Average / Luminescence signal for ATP measurement, day-2 Average / Luminescence signal for ATP measurement, day-3 Average / Luminescence signal for ATP measurement, day-4 Average / Luminescence signal for ATP measurement, day-5 Average: n = 6, day-0 luminescence = 320956 ± 24708; for viability at 10 µM: Homo sapiens, WI-38, 120 h, DMSO ctrl = 100.0%, read-out: ATP luminescence by day-5 normalized; for Luminescence signal for ATP measurement, day-5 Average / viability at 10 µM: day-5; for O = Potential toxicity / Q = Potential toxicity: human, 5 days;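 for Luminescence signal for ATP measurement, day-2 Average: compounds at 10 µM with ATP read daily over 5 days of treatment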;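 for Luminescence signal for ATP measurement, day-3 Average: compounds at 10 µM with ATP read daily over 5 days of treatment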;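 for Luminescence signal for ATP measurement, day-4 Average: compounds at 10 µM with ATP read daily over 5 days of treatment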;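 for Luminescence signal for ATP measurement, day-5 Average: compounds at 10 µM with ATP read daily over 5 days of treatment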
[5] = Summary score for characterization of 38 core set hits; conditions: for D = Triple resistant: 2-point score, multiplex resistance (cadmium, MMS, H2O2); for S = Sum of Negative scores: human; for C = H2O2- & Cd-resistant: score, resistance to both H2O2 and cadmium
How it was run: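 Composite score. 2 pts each: multiplex stress resistance, FOXO3/NRF2 activation, mTOR down-regulation. Worm lifespan (4–6 independent trials): 0 = no obvious effect, 1 = extension in 2 trials, 2 = extension in >2 trials. −1 for DNA damage and/or cytotoxicity in cultured human cells.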

[6] = H2O2 3 hrs, 10 uM, n = 6, negative control 5.44% ± 0.79%, read-out: Percentage of propidium iodide-positive dead cells (under H2O2 stress treatment), 3 hrs
[7] = pre-treatment at 10 uM, 3.5 hours of H2O2, DMSO control 27.4% ± 6.5%, */**/*** = reduced by one/two/three standard deviations, read-out: Percentage of propidium iodide-positive dead cells (under H2O2 stress treatment), at 10 uM
[8] = Experiment 1, HDF cells, read-out: Experiment 1, HDF cells (under H2O2 stress treatment), at 10 uM (fold change)
[9] = Experiment 2, HDF cells, read-out: Experiment 2, HDF cells (under H2O2 stress treatment), at 10 uM (fold change)
[10] = read-out: Experiment 1, H2A.X-P DNA damage foci staining (no H2O2 stress treatment), at 10 uM
[11] = read-out: Experiment 2, H2A.X-P DNA damage foci staining (no H2O2 stress treatment), at 10 uM
[12] = read-out: Experiment 2, H2A.X-P DNA damage foci staining (under H2O2 stress treatment), at 10 uM
[13] = read-out: Experiment 2, TP53BP1-P DNA damage foci staining (no H2O2 stress treatment), at 10 uM
[14] = read-out: Experiment 2, TP53BP1-P DNA damage foci staining (under H2O2 stress treatment), at 10 uM
[15] = H2O2 4 hrs, 10 uM, n = 6, negative control 16.81% ± 1.42%, read-out: Percentage of propidium iodide-positive dead cells (under H2O2 stress treatment), 4 hrs

| Structure (SMILES) | Assay 7: H2O2-resistant, at 10 uM, validated by propidium iodide (PI) cell-death imaging (WI-38 cells [1]; 10 uM) | cytotoxicity at 10 µM (WI-38 cells [1]; [6]) [%] | cytotoxicity at 10 µM (WI-38 cells [1]; [7]) [%] | fold induction at 10 µM [2, 8] | fold induction at 10 µM [2, 9] | Assay 6: H2O2-resistant, at 10 uM, human dermal fibroblast (HDF) primary cells [2] | H = Potential Autophagy Induction (LC3A/B puncta; score) | H = Potential Autophagy Induction (LC3A/B puncta; summary score) | activity at 10 µM [3, 10] [%] | activity at 10 µM [3, 11] [%] | activity at 10 µM [3, 12] [%] | activity at 10 µM [3, 13] [%] | activity at 10 µM [3, 14] [%] | P = Potential DNA-damaging [3] | R = Potential DNA damaging [3] | Luminescence signal for ATP measurement, day-1 Average (WI-38 cells [4]) | Luminescence signal for ATP measurement, day-2 Average (WI-38 cells [4]) | Luminescence signal for ATP measurement, day-3 Average (WI-38 cells [4]) | Luminescence signal for ATP measurement, day-4 Average (WI-38 cells [4]) | Luminescence signal for ATP measurement, day-5 Average (WI-38 cells [4]) | also measured |
| --- | --- | --- | --- | --- | --- | --- | --- | --- | --- | --- | --- | --- | --- | --- | --- | --- | --- | --- | --- | --- | --- |
| Oc1ncnc2sc3c(c12)CCC3 [O14] | YES | 3.8 | 12.7 | 2.87 | 4.73 | YES | 0 | 0 | 116 | 85.3 | 221 | 159 | 254 | 0 | 0 | 581665 | 685103 | 819423 | 1074238 | 1052551 | viability at 10 µM (WI-38 cells [4]): 102%; O = Potential toxicity (WI-38 cells [4]): 0; Q = Potential toxicity (WI-38 cells [4]): 0; D = Triple resistant [5]: 0; S = Sum of Negative scores [5]: 0; C = H2O2- & Cd-resistant [5]: 1 |
| CCCN1C/C(=C\c2ccc(F)cc2)C(=O)/C(=C/c2ccc(F)cc2)C1 [O15] | YES | 4.04 | 6.8 | 0.57 | 1.77 | YES | 0 | 0 | 90 | 184 | 58.4 | 48.3 | 251 | 0 | 0 | 426828 | 601153 | 634740 | 904970 | 761533 | cytotoxicity at 10 µM (WI-38 cells [1]; [15]): 4.4%; cytotoxicity at 10 µM (WI-38 cells [1]; H2O2 5 hrs, 10 uM, n = 6, negative control 22.50% ± 1.53%, read-out: Percentage of propidium iodide-positive dead cells (under H2O2 stress treatment), 5 hrs): 6.06%; viability at 10 µM (WI-38 cells [4]): 74.2%; O = Potential toxicity (WI-38 cells [4]): 1; Q = Potential toxicity (WI-38 cells [4]): 0; D = Triple resistant [5]: 0; S = Sum of Negative scores [5]: 0; C = H2O2- & Cd-resistant [5]: 0 |
| [O-][n+]1onc2c3nsnc3c(Br)cc21 [O17] | YES | 0.8 | 6.6 | 3.35 | 48.5 | YES | 0 | 0 | 96.7 | 72.1 | 129 | 148 | 349 | 0 | 0 | 507143 | 697351 | 849445 | 1073975 | 1070851 | cytotoxicity at 10 µM (WI-38 cells [1]; [15]): 2.83%; viability at 10 µM (WI-38 cells [4]): 104%; O = Potential toxicity (WI-38 cells [4]): 0; Q = Potential toxicity (WI-38 cells [4]): 0; D = Triple resistant [5]: 0; S = Sum of Negative scores [5]: 0; C = H2O2- & Cd-resistant [5]: 0 |
